Test systems include SK-MEL-2 melanoma; MALME-3M melanoma; SF-539 CNS; HS 578T breast; OVCAR-8 ovarian; SNB-19 CNS; DU-145 prostate; M14 melanoma; OVCAR-5 ovarian; IGROV1 ovarian.
Assay in all cases: NCI-60 cell line screen, 48 h

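48-hour exposure; five concentrations; linearly interpolated endpoints. At the GI50, growth is halved. Definition used: TGI = concentration required for complete inhibition of growth.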

Consider `COc1cccc(/C=C/C(=O)c2cccc(Nc3nc(Nc4ccccc4)nc(Nc4ccccc4)n3)c2)c1`, for which the GI50 in the test with SK-MEL-2 melanoma is over 33.4 µM; with MALME-3M melanoma it was over 48.7 µM; in the test with SF-539 CNS it was 15.6 µM; in the test on HS 578T breast, 15.8 µM; with OVCAR-8 ovarian, 9.91 µM; in the test with SNB-19 CNS it was over 56.9 µM. Besides, the GI50 with DU-145 prostate is 19.9 µM; with M14 melanoma, 19.3 µM; with OVCAR-5 ovarian, 26.8 µM; with IGROV1 ovarian, 5.47 µM. Also, the TGI with SK-MEL-2 melanoma was over 100 µM; with MALME-3M melanoma it was over 100 µM; in the test on SF-539 CNS, 34.4 µM; with HS 578T breast, 61.7 µM; in the test with OVCAR-8 ovarian, over 100 µM; with SNB-19 CNS, over 100 µM. Besides, the TGI is over 100 µM in the test with DU-145 prostate, over 72.2 µM in the test on M14 melanoma, over 86.3 µM in the test with OVCAR-5 ovarian and 33.2 µM in the test on IGROV1 ovarian.
On to `COc1ccc(C(=O)/C=C/c2ccc(/C=C/c3cc(OC)c(OC)c(OC)c3)cc2)cc1`, for which the GI50 was 18.9 µM with SK-MEL-2 melanoma; 13.2 µM in the test on MALME-3M melanoma; 12.2 µM in the test with SF-539 CNS; 9.11 µM in the test with HS 578T breast; 3.76 µM with OVCAR-8 ovarian; 21.1 µM with SNB-19 CNS. Further, the GI50 in the test with DU-145 prostate is 10.2 µM; in the test on M14 melanoma, 9.61 µM; with OVCAR-5 ovarian, 34.1 µM; with IGROV1 ovarian it was 9.24 µM. The TGI is over 100 µM in the test with SK-MEL-2 melanoma; over 100 µM in the test on MALME-3M melanoma; 78.3 µM in the test on SF-539 CNS; over 100 µM with HS 578T breast; 61.1 µM with OVCAR-8 ovarian; over 100 µM in the test on SNB-19 CNS. The TGI in the test with DU-145 prostate is over 100 µM; in the test with M14 melanoma it was over 100 µM; with OVCAR-5 ovarian, over 100 µM; in the test on IGROV1 ovarian, 76.4 µM.
In the case of `O=C(CC(=O)CC(O)(C(F)(F)F)C(F)(F)F)CC(O)(C(F)(F)F)C(F)(F)F`, the TGI in the test with SK-MEL-2 melanoma, with MALME-3M melanoma, in the test with SF-539 CNS, with HS 578T breast, in the test with OVCAR-8 ovarian and with SNB-19 CNS was over 10 µM in each case. The TGI in the test on DU-145 prostate, with M14 melanoma, in the test on OVCAR-5 ovarian and with IGROV1 ovarian was over 10 µM in each case.
On to `CCN(CC)CCn1ccc(=O)c2cc3c(=O)ccn(CCN(CC)CC)c3c(C)c21`, for which the TGI with SK-MEL-2 melanoma came to 24.5 µM; with MALME-3M melanoma, 29.6 µM; in the test with SF-539 CNS it was 24.2 µM; in the test on HS 578T breast it was 17.5 µM; in the test with OVCAR-8 ovarian it was 15.5 µM; in the test with SNB-19 CNS, 18.3 µM. Besides, the TGI in the test with DU-145 prostate amounted to 20.7 µM; in the test on M14 melanoma, 22.5 µM; in the test on OVCAR-5 ovarian it was 29.9 µM; in the test on IGROV1 ovarian, 22 µM.
For `O=C1OC(=O)C(c2c[nH]c3ccccc23)=C1c1c[nH]c2ccccc12`, the GI50 in the test on SK-MEL-2 melanoma, in the test with MALME-3M melanoma, with SF-539 CNS, in the test with HS 578T breast, in the test on OVCAR-8 ovarian and in the test on SNB-19 CNS was over 25 µM each time. The GI50 with DU-145 prostate, in the test with M14 melanoma, with OVCAR-5 ovarian and in the test on IGROV1 ovarian was over 25 µM in each case. The TGI in the test on SK-MEL-2 melanoma, in the test with MALME-3M melanoma, in the test with SF-539 CNS, in the test with HS 578T breast, with OVCAR-8 ovarian and in the test with SNB-19 CNS was over 25 µM in each case. Further, the TGI in the test on DU-145 prostate, with M14 melanoma, in the test on OVCAR-5 ovarian and in the test with IGROV1 ovarian was over 25 µM throughout.
Consider `C[C@@H](C(=O)Nc1ccc(Cl)cc1)C1CCC(c2ccnc3ccc(F)cc23)CC1` (stereo not given in full), for which the GI50 in the test with SK-MEL-2 melanoma is 9.81 µM; in the test with MALME-3M melanoma it was 9.83 µM; in the test on SF-539 CNS, 11.8 µM; with HS 578T breast, 9.3 µM; with OVCAR-8 ovarian, 21 µM; with SNB-19 CNS it was 10.8 µM. Further, the GI50 is 12.6 µM with DU-145 prostate, 7.12 µM with M14 melanoma, 17.8 µM in the test with OVCAR-5 ovarian and 9.11 µM with IGROV1 ovarian. Also, the TGI with SK-MEL-2 melanoma was 29.8 µM; with MALME-3M melanoma, 60 µM; in the test with SF-539 CNS it was 47.7 µM; in the test with HS 578T breast, 68.5 µM; in the test on OVCAR-8 ovarian it was over 100 µM; in the test on SNB-19 CNS, over 100 µM. Also, the TGI with DU-145 prostate, in the test with M14 melanoma, with OVCAR-5 ovarian and in the test on IGROV1 ovarian was over 100 µM each time.
On to `CCCCCn1c(=N)n(CC(O)COc2cccc(C)c2)c2ccccc21` (stereo not given), for which the GI50 is 5.68 µM with SK-MEL-2 melanoma; 2.39 µM in the test with MALME-3M melanoma; 11.7 µM in the test with SF-539 CNS; 5.5 µM in the test on HS 578T breast; 2.11 µM in the test with OVCAR-8 ovarian; 12.3 µM in the test on SNB-19 CNS. Further, the GI50 was 11.4 µM in the test on DU-145 prostate, 3.26 µM in the test with M14 melanoma, 9.82 µM in the test with OVCAR-5 ovarian and 4.45 µM with IGROV1 ovarian. Further, the TGI is 18.4 µM with SK-MEL-2 melanoma; 6.1 µM in the test with MALME-3M melanoma; 24.7 µM in the test on SF-539 CNS; 24.8 µM in the test on HS 578T breast; 5.04 µM in the test on OVCAR-8 ovarian; 26.4 µM in the test on SNB-19 CNS. The TGI with DU-145 prostate worked out at 24 µM; in the test on M14 melanoma, 12.3 µM; in the test with OVCAR-5 ovarian, 25.2 µM; in the test with IGROV1 ovarian, 18 µM.
Turning to `COc1cc(C2c3cc4c(cc3OC(N3CCCC3)C2C)OCO4)cc(OC)c1OC` (stereo not given), the TGI in the test with SK-MEL-2 melanoma turned out to be 7.56 µM; with MALME-3M melanoma, 34.7 µM; in the test on SF-539 CNS, 0.732 µM; in the test on HS 578T breast it was 2.3 µM; in the test on OVCAR-8 ovarian it was 9.82 µM; in the test on SNB-19 CNS, 15.4 µM. Further, the TGI in the test on DU-145 prostate was 11.3 µM; in the test with M14 melanoma it was 12.8 µM; with OVCAR-5 ovarian it was over 47.9 µM; in the test on IGROV1 ovarian, 30.2 µM.

These data come from PubChem BioAssay (NCI).
